“And” between values parts separate entries of the source, which are not always exact repeats. Identical values can stand only once. Like-named read-outs stand apart in the source and are kept apart here. Values belong to the molecule of their own block, whether it stands above or below them.
Tests used:
Assay type in all cases: cell-based, human
[1] = system: HL-60; experiment: Differentiation-apoptosis assay, CD11b / annexin-V / Sytox Green / myeloid markers flow cytometry; set-up: Cell viability (%): concentration or dose not given beside the values; CD11b levels: unit not given here; conditions: for Annexin V (%) Replicate 1 / Annexin V (%) Replicate 2 / Annexin V (%) Replicate 3 / CD11b (%) Replicate 1 / CD11b (%) Replicate 2 / CD11b (%) Replicate 3: HL-60, daily 25% GI50, 48 h; for CD11b (%) / Cell viability (%): HL-60, 48 h treatment, replicates 1-3 (Suppl. Fig. 5A)
Protocol: Next, the cells were washed twice with phosphate-buffered saline (PBS) and resuspended in 1X Binding Buffer at a concentration of 1 × 10^6 cells/mL. […] Finally, after the addition of 400 µL of 1X Binding Buffer to each tube, samples were collected on a BD FACSCanto flow cytometer (Becton Dickinson, San Jose, CA, USA) and analyzed using FlowJo software.
Then, 1 million cells (volume of 250 µL) were added and incubated for 30 min at room temperature in darkness. After 10 min incubation at room temperature with 2 mL of FACSLysing 1X, cells were centrifuged at 540 g for 5 min and washed twice with FACSBuffer. Finally, after centrifugation at 540 g for 5 min cells were resuspended in FACSBuffer.

[2] = system: LINE-1 DNA methylation in HL-60; experiment: LINE-1 pyrosequencing; conditions: HL-60, 10 days
Protocol: (§1) DNA methylation of the repetitive element LINE-1 was analyzed using a pyrosequencing technique. […] Cells were washed twice with PBS, and then genomic DNA was extracted using a DNA Kit (Nucleo Spin Tissue, Cat No 74095250, Macherey-Nagel) following the manufacturer's instructions. DNA purity and concentration were measured using a NanoDrop spectrophotometer (Thermo Scientific). A 1 μg amount of genomic DNA was treated and modified using a CpGenome DNA modification Kit (Cat No S7820, Chemicon International) following the manufacturer's instructions. […] [NT]) in a final volume of 25 μL. The resulting biotinylated PCR products were immobilized to Streptavidin Sepharose ® High-Performance beads (GE Healthcare) and processed to yield high-quality ssDNA using the PyroMark Vacuum Prep Workstation (Biotage) according to the manufacturer's instructions. The pyrosequencing reactions were performed using the PyromarkTM ID (Biotage), and sequence analysis was performed using the PyroQ-CpG analysis software (Biotage).

[3] = system: LINE-1 DNA methylation in ML-2; experiment: LINE-1 pyrosequencing; conditions: ML-2, 10 days
Protocol: as §1

[4] = system: LINE-1 DNA methylation in MOLM-13; experiment: LINE-1 pyrosequencing; conditions: MOLM-13, 5 days
Protocol: as §1

[5] = system: LINE-1 DNA methylation in MV4-11; experiment: LINE-1 pyrosequencing; conditions: MV4-11, 5 days
Protocol: as §1

[6] = system: HL-60; experiment: Cell proliferation assay: GI50; conditions: read-out: GI50
Protocol: (§2) Cell proliferation was analyzed using the CellTiter 96 Aqueous One Solution Cell Proliferation Assay (Promega, Madison, WI). This is a colorimetric method for determining the number of viable cells in proliferation. For the assay, suspension cells were cultured in triplicate at a density of 1 × 10^6 cells/mL in 96-well plates (100.000 cells/well, 100 µL/well), using only the 60 inner wells to avoid any border effects. […] Then, the cells were incubated with 100 μL/well of medium and 20 μL/well of CellTiter 96 Aqueous One Solution reagent for 1–3 h. […] The background absorbance was measured in wells with only cell line medium and solution reagent. First, the average of the absorbance from the control wells was subtracted from all other absorbance values. Data were calculated as the percentage of total absorbance of treated cells/absorbance of non-treated cells. The GI50 values of the different compounds were determined using non-linear regression plots made with GraphPad Prism v5 software.

[7] = system: ML-2; experiment: Cell proliferation assay: GI50
Protocol: as §2

[8] = system: MOLM-13; experiment: Cell proliferation assay: GI50
Protocol: as §2

[9] = system: MV4-11; experiment: Cell proliferation assay: GI50
Protocol: as §2

[10] = system: ML-2; experiment: Differentiation-apoptosis assay, CD11b / annexin-V / Sytox Green / myeloid markers flow cytometry; set-up: Cell viability: concentration or dose not given beside the values; CD11b levels: unit not given here; conditions: for CD11b / Cell viability: ML-2, 48 h, replicates (Fig 4A)
Protocol: (§3) Next, the cells were washed twice with phosphate-buffered saline (PBS) and resuspended in 1X Binding Buffer at a concentration of 1 × 10^6 cells/mL. An 8-µL aliquot of APC-CD11b (BD Pharmingen, Franklin Lakes, NJ, USA) and 1 µL of FITC annexin-V (AV) (BD Pharmingen, Franklin Lakes, NJ, USA) antibodies were added and incubated for 15 min at room temperature in the dark. Finally, after the addition of 400 µL of 1X Binding Buffer to each tube, samples were collected on a BD FACSCanto flow cytometer (Becton Dickinson, San Jose, CA, USA) and analyzed using FlowJo software.
(§4) For the rest of experiments, the mix of antibodies (2 µL of BV786-CD13, Cat No, 744748 BD; 1 µL of diluted 1:10 antibody of PB-HLADR, Cat No 307633, Biolegend; 5 µL of APCH7-CD14, Cat No 641394, BD) was added to 10 µL of Brilliant Stain Buffer Plus (Becton Dickinson, San Jose, CA, USA). Then, 1 million cells (volume of 250 µL) were added and incubated for 30 min at room temperature in darkness. After 10 min incubation at room temperature with 2 mL of FACSLysing 1X, cells were centrifuged at 540 g for 5 min and washed twice with FACSBuffer. Finally, after centrifugation at 540 g for 5 min cells were resuspended in FACSBuffer.

[11] = system: MOLM-13; experiment: as above; set-up: Cell viability (%): concentration or dose not given beside the values; CD11b levels: unit not given here; conditions: for CD11b (%) / Cell viability (%): MOLM-13, 48 h treatment, replicates 1-3 (Suppl. Fig. 5A)
Protocol: as §3, §4

[12] = system: MV4-11; experiment: as above; set-up: Cell viability (%): concentration or dose not given beside the values; CD11b levels: unit not given here; conditions: for CD11b (%) / Cell viability (%): MV4-11, 48 h treatment, replicates 1-3 (Suppl. Fig. 5A)
Protocol: as §3, §4

[13] = HL-60, replicates 1-3, µM for the other inhibitors
[14] = ML-2, replicates 1-3, µM for the other inhibitors
[15] = MOLM-13, replicates 1-3, µM for the other inhibitors
[16] = MV4-11, replicates 1-3, µM for the other inhibitors

Compound: COc1cc2c(cc1OCCCN1CCCC1)N=C(N)C21CCC1 [Compound A-366, A-366, reference compound]
Annexin V (%) Replicate 1 [1]: 1.45%
Annexin V (%) Replicate 2 [1]: 1.05%
Annexin V (%) Replicate 3 [1]: 1.10%
CD11b (%) Replicate 1 [1]: 9.70%
CD11b (%) Replicate 2 [1]: 5.40%
CD11b (%) Replicate 3 [1]: 4.85%

Compound: Nc1ncn([C@H]2C[C@H](O)[C@@H](CO)O2)c(=O)n1 [Decitabine, reference compound]
Annexin V (%) Replicate 1 [1]: 4.10%
Annexin V (%) Replicate 2 [1]: 3.17%
Annexin V (%) Replicate 3 [1]: 2.48%
CD11b (%) Replicate 1 [1]: 7.50%
CD11b (%) Replicate 2 [1]: 9.90%
CD11b (%) Replicate 3 [1]: 9.03%
LINE-1 methylation (%) CG Position 1 [2]: 35% and 39%
LINE-1 methylation (%) CG Position 2 [2]: 32% and 40%
LINE-1 methylation (%) CG Position 3 [2]: 43% and 55%
LINE-1 methylation (%) CG Position 4 [2]: 44% and 52%
LINE-1 methylation (%) CG Position 5 [2]: 33% and 37%
LINE-1 methylation (%) CG Position 1 [3]: 36% and 34%
LINE-1 methylation (%) CG Position 2 [3]: 39% and 33%
LINE-1 methylation (%) CG Position 3 [3]: 42%
LINE-1 methylation (%) CG Position 4 [3]: 41% and 39%
LINE-1 methylation (%) CG Position 5 [3]: 32% and 28%
LINE-1 methylation (%) CG Position 1 [4]: 36% and 38%
LINE-1 methylation (%) CG Position 2 [4]: 37% and 43%
LINE-1 methylation (%) CG Position 3 [4]: 48% and 46%
LINE-1 methylation (%) CG Position 4 [4]: 46% and 54%
LINE-1 methylation (%) CG Position 5 [4]: 37% and 35%
LINE-1 methylation (%) CG Position 1 [5]: 53% and 47%
LINE-1 methylation (%) CG Position 2 [5]: 50% and 54%
LINE-1 methylation (%) CG Position 3 [5]: 53% and 55%
LINE-1 methylation (%) CG Position 4 [5]: 55% and 53%
LINE-1 methylation (%) CG Position 5 [5]: 43% and 45%

GI50 [6, 13]: 8.3 µM and 7.3 µM
GI50 ([6]; Homo sapiens, HL-60, HL-60, replicates 1-3, µM for the other inhibitors): 7.8 µM
GI50 ([8]; Homo sapiens, MOLM-13, 48 h): 2.4 µM
GI50 ([8]; Homo sapiens, MOLM-13, MOLM-13, replicates 1-3, µM for the other inhibitors): 2.6 µM
GI50 [8, 15]: 2 µM
GI50 ([9]; Homo sapiens, MV4-11, MV4-11, replicates 1-3, µM for the other inhibitors): 3.3 µM
GI50 [9, 16]: 2.8 µM and 3 µM
Compound: Nc1ccccc1NC(=O)c1ccc(CNC(=O)OCc2cccnc2)cc1 [Entinostat, reference compound]
GI50 ([7]; Homo sapiens, ML-2, 48 h): 9.1 µM
GI50 ([7]; Homo sapiens, ML-2, ML-2, replicates 1-3, µM for the other inhibitors): 6.6 µM
GI50 [7, 14]: 10.9 µM and 9.8 µM
CD11b (%) [1]: 32.6% and 37.2% and 30.1%
Cell viability (%) [1]: 38.4% and 38.5% and 40.7%
CD11b [10]: 25.1% and 39.8% and 36.7%
Cell viability [10]: 59.1% and 65.7% and 58.8%
CD11b (%) [11]: 76.1% and 83.2% and 84.3%
Cell viability (%) [11]: 47.7% and 56.4% and 56.1%
CD11b (%) [12]: 41.0% and 45.6% and 43.2%
Cell viability (%) [12]: 35.1% and 39.2% and 39.7%

Compound: CCNC(=O)C[C@@H]1N=C(c2ccc(Cl)cc2)c2cc(OC)ccc2-n2c(C)nnc21 [Molibresib, reference compound]
CD11b levels ([1]; HL-60 treated daily for 48 h, replicates (Fig 6D)): 14.6 and 15.6 and 12.7
CD11b levels ([10]; ML-2 treated daily for 48 h, replicates (Fig 6E)): 15.1 and 13.2 and 11.7
CD11b levels ([11]; MOLM-13, daily treatment for 48 h, replicates 1-3 (Suppl. Fig. 9A)): 13.1 and 10.8 and 12.3
CD11b levels ([12]; MV4-11, daily treatment for 48 h, replicates 1-3 (Suppl. Fig. 9A)): 12.1 and 15.4 and 13.7

GI50 ([6]; HL-60, replicates 1-3, nM for Panobistat and Quisinostat): 0.138 µM and 0.103 µM
GI50 ([6]; Homo sapiens, HL-60, HL-60, replicates 1-3, nM for Panobistat and Quisinostat): 0.0957 µM
GI50 ([6]; Homo sapiens, HL-60, HL-60): 0.112 µM
GI50 ([8]; Homo sapiens, MOLM-13, MOLM-13): 0.067 µM
GI50 ([8]; Homo sapiens, MOLM-13, MOLM-13, replicates 1-3, nM for Panobistat and Quisinostat): 0.0589 µM
GI50 ([8]; MOLM-13, replicates 1-3, nM for Panobistat and Quisinostat): 0.0736 µM and 0.0685 µM
GI50 ([9]; Homo sapiens, MV4-11, MV4-11): 0.013 µM
GI50 ([9]; MV4-11, replicates 1-3, nM for Panobistat and Quisinostat): 0.0131 µM and 0.0143 µM
Compound: Cn1cc(CNCC2CCN(c3ncc(C(=O)NO)cn3)CC2)c2ccccc21 [Quisinostat, reference compound]
GI50 ([7]; Homo sapiens, ML-2, ML-2): 0.076 µM
GI50 ([7]; Homo sapiens, ML-2, ML-2, replicates 1-3, nM for Panobistat and Quisinostat): 0.0673 µM
GI50 ([7]; ML-2, replicates 1-3, nM for Panobistat and Quisinostat): 0.0895 µM and 0.0712 µM
CD11b (%) [1]: 36.8% and 39.6% and 35.4%
Cell viability (%) [1]: 84.1% and 72.6% and 75.5%
CD11b [10]: 35.4% and 25.9% and 25.4%
Cell viability [10]: 86.7% and 75.1% and 77.3%
CD11b (%) [11]: 55.3% and 50.4% and 58.7%
Cell viability (%) [11]: 64.2% and 57.7% and 56.3%
CD11b (%) [12]: 16.1% and 10.9% and 10.0%
Cell viability (%) [12]: 83.6% and 79% and 74.7%

Compound: CCCc1nn(C)c2c(=O)[nH]c(-c3cc(S(=O)(=O)N4CCN(C)CC4)ccc3OCC)nc12 [Sildenafil, reference compound]
Annexin V (%) Replicate 1 [1]: 0.22%
Annexin V (%) Replicate 2 [1]: 0.14%
Annexin V (%) Replicate 3 [1]: 0.18%
CD11b (%) Replicate 1 [1]: 0.00%
CD11b (%) Replicate 2 [1]: 4.74%
CD11b (%) Replicate 3 [1]: 4.47%

GI50 ([6]; HL-60, 48 h): > 10 µM
GI50 [6, 13]: > 10 µM
GI50 ([8]; MOLM-13, 48 h): > 10 µM
GI50 [8, 15]: > 10 µM
GI50 ([9]; MV4-11, 48 h): > 10 µM
GI50 [9, 16]: > 10 µM
Compound: CN1CCc2c(c3ccccc3n2Cc2ccc(C(=O)NO)cc2)C1 [Tubastatin, reference compound]
GI50 ([7]; ML-2, 48 h): > 10 µM
GI50 [7, 14]: > 10 µM
CD11b (%) [1]: 26.8% and 22.6% and 20.1%
Cell viability (%) [1]: 69.4% and 76.8% and 76.1%
CD11b [10]: 28.3% and 27.1% and 25.0%
Cell viability [10]: 83.1% and 89.7% and 79.2%
CD11b (%) [11]: 29.6% and 36.5% and 39.8%
Cell viability (%) [11]: 74.1% and 65.3% and 78.4%
CD11b (%) [12]: 9.3% and 10.2% and 12.6%
Cell viability (%) [12]: 89.7% and 84.3% and 92.1%

— article PMC11219871, “Epigenetic-based differentiation therapy for Acute Myeloid Leukemia” (Nature Communications, 2024)
